Experimental data published in ChEMBL document CHEMBL2346642, “Antioxidant and antiproliferative activity of glycosides obtained by biotransformation of xanthohumol” (Bioorg Med Chem Lett, 2013).

How the values were obtained:
[1] = tested on: Radical scavenging activity; test: Antioxidant activity assessed as DPPH radical scavenging activity by UV-vis spectrophotometry analysis; assay type: functional
MCF7 = test: Antiproliferative activity against human MCF7 cells after 72 hrs by SRB assay; assay type: functional, cell-based; settings: MCF7, 72 h
PC-3 = test: Antiproliferative activity against human PC3 cells after 72 hrs by SRB assay; assay type: functional, cell-based
HT-29 = test: Antiproliferative activity against human HT-29 cells after 72 hrs by SRB assay; assay type: functional, cell-based
[2] = Homo sapiens, PC-3, 72 h, read-out: IC50
[3] = Homo sapiens, HT-29, 72 h, read-out: IC50

O=C1O[C@H]([C@@H](O)CO)C(O)=C1O [ASCORBIC ACID]
IC50 [1]: 0.52 µM

COc1cc(O[C@@H]2O[C@H](CO)[C@@H](O)[C@H](O)[C@H]2O)c(CC=C(C)C)c2c1C(=O)C[C@@H](c1ccc(O)cc1)O2
IC50 (MCF7): 146 µM
IC50 (PC-3; pc-3): Not Active
IC50 (HT-29; ht-29): Not Active
IC50 [1]: 6.13 µM

COc1cc(O[C@@H]2O[C@H](CO)[C@@H](O)[C@H](O)[C@H]2O)c(CC=C(C)C)c(O)c1C(=O)/C=C/c1ccc(O)cc1 [XANTHOHUMOL-4'-O-BETA-D-GLUCOPYRANOSIDE]
IC50 (MCF7): 51.4 µM
IC50 (PC-3; [2]): 58.1 µM
IC50 (HT-29; [3]): 63.6 µM
IC50 [1]: 0.77 µM

COc1cc(O)c(CC=C(C)C)c(O)c1C(=O)/C=C/c1ccc(O)cc1 [XANTHOHUMOL]
IC50 [1]: 1.98 µM

COc1cc(O[C@@H]2O[C@H](CO)[C@@H](OC)[C@H](O)[C@H]2O)c(CC=C(C)C)c(O)c1C(=O)/C=C/c1ccc(O)cc1
IC50 (MCF7): 19.9 µM
IC50 (PC-3; [2]): 47.9 µM
IC50 (HT-29; [3]): 51.8 µM
IC50 [1]: 9.06 µM
